Test results reported in ChEMBL document CHEMBL1136841, “Discovery of 2-(alpha-methylbenzylamino) pyrazines as potent Type II inhibitors of FMS” (Bioorg Med Chem Lett, 2009).

What was measured:
[1] = test system: Rattus norvegicus; assay: Half life in rat at 5 mg/kg, iv; assay type: ADME, organism-based; design: dose 5 mg/kg, route intravenous; conditions: in vivo
[2] = test system: Rattus norvegicus; assay: Apparent volume of distribution in rat at 5 mg/kg, iv; assay type: ADME, organism-based; design: dose 5 mg/kg, route intravenous; conditions: in vivo

- t1/2 [1]: 5.9 h
- Vz [2]: 30.2 L/kg
SMILES: Cc1cccc(C(=O)Nc2cccc([C@H](C)Nc3cncc(Cl)n3)c2)c1
